Assays:
[1] = system: E. faecium D344SRF pCWR624Δpbp5_pbp5_V6; assay: MIC by broth microdilution, pbp5_V6; format: cell-based, Enterococcus faecium; settings: strain pbp5_V6 (E284A_E291A_S294A_N295A); 37 °C, 20 h; n=3
Protocol: (§1) The synthetic genes were purchased from GeneWiz (South Plainfield, NJ). The ribosome binding site sequence AGGAGG (Shine-Dalgarno), and a string of five A’s followed by the sequence […], that corresponds to the first 15 bp found in pbp5 from E. faecium C68 were added upstream of the START codon. The terminator sequence […] was added downstream of the STOP codon. BamHI restriction sites were added to the flanking 5′ and 3′ ends. The synthetic genes were inserted into the vector pCWR624Δpbp5. This vector was derived from pCWR624[10], in which the pbp5 gene from D366 was excised by digestion with BamHI followed by re-ligation of the vector, allowing subsequent insertion of modified synthetic pbp5s into the BamHI site downstream of ftsWEfm and psr from E. faecium C68[10]. The synthetic genes were inserted in a BamHI site located downstream of psr. The proper orientation was confirmed by PCR amplification using the forward primer OR_pbp5_FOR_1 (5′-[…]-3′) and the reverse primer OR_pbp5_REV_1 (5′-[…]-3′). Plasmids were sequence verified for the specific binding site mutations. The resulting constructions were electroporated into the natural pbp5(-) mutant E. faecium D344SRF with a selection on brain heart infusion agar (BHI) plates containing kanamycin (1500 µg/ml).
(§2) E. faecium strains were streaked fresh from −80 °C stored glycerol stocks onto brain heart infusion (BHI) agar plates and incubated for 18 h at 37 °C. Strains harboring the plasmid derivatives were grown under antibiotic pressure on agar plates containing kanamycin at 1500 µg/ml. A single colony was inoculated into BHI or BHI-kanamycin (1500 µg/ml) for overnight cultures (18 h).
(§3) MIC determination was performed using a standard broth microdilution technique in duplicate from independent cultures. Overnight cultures were inoculated into 3 ml of BHI or BHI-kanamycin (1500 µg/ml) broth in a dilution of 1:100 and incubated until an OD600 of ~0.5 was reached. Cultures were diluted 1:1000 and inoculated into the 96-well plates with the corresponding antibiotics to be tested. Plates were incubated at 37 °C for 20 h and read by eye. […]

[2] = system: E. faecium D344SRF pCWR624Δpbp5_pbp5_V3; assay: MIC by broth microdilution, pbp5_V3; format: cell-based, Enterococcus faecium; settings: strain pbp5_V3 (loop 625-631); 37 °C, 20 h; n=3
Protocol: as §1, §2, §3

[3] = system: E. faecium D344SRF pCWR624Δpbp5_pbp5_V6; assay: Disk diffusion assay, pbp5_V6; format: cell-based, Enterococcus faecium; settings: strain pbp5_V6 (E284A_E291A_S294A_N295A); 37 °C, 24 h; n=3
Protocol: as §1, §2
(§4) Antibiotic disks used were manufactured by BD BBL^TM. Disk diffusion assays were performed according to the Clinical and Laboratory Standards Institute (CLSI) guidance. Overnight cultures were inoculated into 3 ml of BHI or BHI-kanamycin (1500 µg/ml) broth with a dilution of 1:100 and incubated until an OD600 of ~0.5 was reached. […] The plates were incubated at 37 °C and the zones of inhibition were measured after 24 h. […]

[4] = system: E. faecium D344SRF pCWR624Δpbp5_pbp5_V5; assay: Disk diffusion assay, pbp5_V5; format: cell-based, Enterococcus faecium; settings: strain pbp5_V5 (Q396A_E397A); 37 °C, 24 h; n=3
Protocol: as §1, §2, §4

[5] = system: E. faecium D344SRF pCWR624Δpbp5_pbp5_V1; assay: MIC by broth microdilution, pbp5_V1; format: cell-based, Enterococcus faecium; settings: strain pbp5_V1 (N523A); 37 °C, 20 h; n=3
Protocol: as §1, §2, §3

[6] = system: E. faecium D344SRF pCWR624Δpbp5_pbp5_V4; assay: MIC by broth microdilution, pbp5_V4; format: cell-based, Enterococcus faecium; settings: strain pbp5_V4 (D530A_L533A_W457A); 37 °C, 20 h; n=3
Protocol: as §1, with “The resulting constructions were electroporated into the natural pbp5(-) mutant E. faecium D344SRF with a selection on brain heart infusion agar (BHI) plates containing kanamycin (1500 µg/ml).” left out
MIC determination was performed using a standard broth microdilution technique in duplicate from independent cultures. […] Plates were incubated at 37 °C for 20 h and read by eye. […]

PBP5:ceftaroline complex = assay: 1D 1H STD NMR of SP2 with PBP5:ceftaroline; format: binding, Enterococcus faecium; settings: for STD amplification factor: ceftaroline-saturated PBP5, 2 s saturation
Source text: Total saturation time for STD measurements was 2 s.
Overlapped peaks were completely excluded from the analysis.

CO/N=C(\C(=O)N[C@@H]1C(=O)N2C(C(=O)O)=C(CSc3nc(=O)c(=O)[nH]n3C)CS[C@H]12)c1csc(N)n1 [Ceftriaxone, ceftriaxone]
MIC (µg/ml) [Range] [1]: > 3200 [>3200] µg/ml | MIC (µg/ml) [Range] [2]: 25 [25] µg/ml | Zone Size (mm) [Range] [3]: 0 [0] mm | Zone Size (mm) [Range] [4]: 0 [0] mm | MIC (µg/ml) [Range] [5]: 3200 [1600-3200] µg/ml | MIC (µg/ml) [Range] [6]: 25 [25-50] µg/ml

D-Lac-L-Ala-D-iGln-L-Lys(D-iAsn) [SP2]
STD amplification factor, ref to SP1 (fraction) (PBP5:ceftaroline complex; 1H DLacβ): 0.3324 | STD, ref to SP1 (percent) (PBP5:ceftaroline complex; 1H DLacβ): 33.2419 | STD amplification factor (PBP5:ceftaroline complex; 1H DLacβ): 8.945 | STD amplification factor, ref to SP1 (fraction) (PBP5:ceftaroline complex; 1H DQ2β (first listed)): 0.6862 | STD, ref to SP1 (percent) (PBP5:ceftaroline complex; 1H DQ2β (first listed)): 68.622 | STD amplification factor (PBP5:ceftaroline complex; 1H DQ2β (first listed)): 18.4651 | STD amplification factor, ref to SP1 (fraction) (PBP5:ceftaroline complex; 1H DQ2β (second listed)): 0.9243 | STD, ref to SP1 (percent) (PBP5:ceftaroline complex; 1H DQ2β (second listed)): 92.4275 | STD amplification factor (PBP5:ceftaroline complex; 1H DQ2β (second listed)): 24.8707 | STD amplification factor, ref to SP1 (fraction) (PBP5:ceftaroline complex; 1H DQ2γ): 0.3051 | STD, ref to SP1 (percent) (PBP5:ceftaroline complex; 1H DQ2γ): 30.515 | STD amplification factor (PBP5:ceftaroline complex; 1H DQ2γ): 8.211 | STD amplification factor, ref to SP1 (fraction) (PBP5:ceftaroline complex; 1H K3α): 0.5095 | STD, ref to SP1 (percent) (PBP5:ceftaroline complex; 1H K3α): 50.9537 | STD amplification factor (PBP5:ceftaroline complex; 1H K3α): 13.7108 | STD amplification factor, ref to SP1 (fraction) (PBP5:ceftaroline complex; 1H K3β): 1.007 | STD, ref to SP1 (percent) (PBP5:ceftaroline complex; 1H K3β): 100.738 | STD amplification factor (PBP5:ceftaroline complex; 1H K3β): 27.1069 | STD amplification factor, ref to SP1 (fraction) (PBP5:ceftaroline complex; 1H K3γ): 0.5588 | STD, ref to SP1 (percent) (PBP5:ceftaroline complex; 1H K3γ): 55.8765 | STD amplification factor (PBP5:ceftaroline complex; 1H K3γ): 15.0355 | STD amplification factor, ref to SP1 (fraction) (PBP5:ceftaroline complex; 1H K3δ): 0.7209 | STD, ref to SP1 (percent) (PBP5:ceftaroline complex; 1H K3δ): 72.0884 | STD amplification factor (PBP5:ceftaroline complex; 1H K3δ): 19.3978 | STD amplification factor, ref to SP1 (fraction) (PBP5:ceftaroline complex; 1H K3ε): 0.1435 | STD, ref to SP1 (percent) (PBP5:ceftaroline complex; 1H K3ε): 14.3544 | STD amplification factor (PBP5:ceftaroline complex; 1H K3ε): 3.863 | STD amplification factor, ref to SP1 (fraction) (PBP5:ceftaroline complex; 1H LA1α): 0.3824 | STD, ref to SP1 (percent) (PBP5:ceftaroline complex; 1H LA1α): 38.2438 | STD amplification factor (PBP5:ceftaroline complex; 1H LA1α): 10.2908 | STD amplification factor, ref to SP1 (fraction) (PBP5:ceftaroline complex; 1H LA1β): 0.3611 | STD, ref to SP1 (percent) (PBP5:ceftaroline complex; 1H LA1β): 36.1111 | STD amplification factor (PBP5:ceftaroline complex; 1H LA1β): 9.717 | STD amplification factor, ref to SP1 (fraction) (PBP5:ceftaroline complex; 1H iNα,DQ2α): 0.2432 | STD, ref to SP1 (percent) (PBP5:ceftaroline complex; 1H iNα,DQ2α): 24.3189 | STD amplification factor (PBP5:ceftaroline complex; 1H iNα,DQ2α): 6.544 | STD amplification factor, ref to SP1 (fraction) (PBP5:ceftaroline complex; 1H iNβ): 0.3137 | STD, ref to SP1 (percent) (PBP5:ceftaroline complex; 1H iNβ): 31.3676 | STD amplification factor (PBP5:ceftaroline complex; 1H iNβ): 8.441

— PMC12717099, “Peptidoglycan recruitment by a penicillin binding protein” (Nature Communications, 2025)
